Assays:
rats [1] = conditions: rat, in vivo
Description: The relationship between amiodarone, azithromycin, or citalopram exposure and the occurrence of drug-induced phospholipidosis was investigated in Fisher rats. Rats were treated with amiodarone (50 mg/kg/day), azithromycin (100 mg/kg/day), citalopram (90 mg/kg/day), or no drug for 4-weeks. Urine samples were collected from each animal and prepared for analysis using a liquid/liquid extraction method. The urine samples (200 μl urine per rat) were mixed with cold 3:1 chloroform/methanol (v/v) (400 μl) and vortexed before adding 0.1% formic acid (aq.) (100 μl). The samples were vortexed again, allowed to sit for 5 min, and centrifuged for 15 min. The bottom (organic) layer was carefully removed and concentrated to dryness. The samples were reconstituted to 30 μl with 0.05% formic acid in 2:1 acetonitrile/methanol (v/v).
The molecular profile of each urine sample was acquired using liquid chromatography coupled to mass spectrometry (LC/MS). Injections were made onto a 150×2.00 mm Synergi Hydro-RP column (Phenomenex, Torrance, Calif., USA) using an a Gilson 235 auto-injector (Gilson, Inc., Middletown, Wis., USA) and an Agilent 1100 binary pump (Agilent Technologies, Palo Alto, Calif., USA). Mobile phase A was 0.25% ammonium hydroxide, 0.05% formic acid in 88:12 methanol/water (v/v). Mobile phase B was 0.25% ammonium hydroxide, 0.05% formic acid in 80:20 methanol/hexane (v/v). […]

[2] = system: bronchoalveolar lavage (BAL) cells; conditions: patients with amiodarone pulmonary toxicity; Martin and Standing 1988; cited from earlier work
rats [3] = experiment: Urinary di-C22:6-BMP levels during 17-day azithromycin treatment (Example 4); type: in vivo, rat; conditions: azithromycin 150 mg/kg/day, all isoforms (FIG. 9)
Description: The methods described above were used to evaluate the tissue phospholipidosis induced by azithromycin (150 mg/kg/day) in rats over a 17-day period. Urine samples were collected from the rats on Days 11 and 17 and subjected to the assay. […] On Day 11, the mean level (n=5 rats per group) of di-C22:6-BMP in urine was increased by 2.6-fold in the rats treated with azithromycin compared to the controls. On Day 17, the mean level (n=5 rats per group) of di-C22:6-BMP in urine was increased approximately by 4.5-fold in the azithromycin treated rats compared to the control rats.

| level of di-22:6-PG in urine (rats [1]) | increase of mean level of di-C22:6-BMP in urine compared to controls, Day 11 (rats [3]; Day 11, n=5 rats per group) | increase of mean level of di-C22:6-BMP in urine compared to controls, Day 17 (rats [3]; Day 17, n=5 rats per group) | SMILES | increase in total BMP in BAL cells compared to control subjects [2] | increase in total PG in BAL cells compared to control subjects [2] |
| --- | --- | --- | --- | --- | --- |
| increased |  |  | CCCCc1oc2ccccc2c1C(=O)c1cc(I)c(OCCN(CC)CC)c(I)c1 [amiodarone] | +64% | +1866% |
|  | 2.6 fold | ~4.5 fold | CC[C@H]1OC(=O)[C@H](C)[C@@H](O[C@H]2C[C@@](C)(OC)[C@@H](O)[C@H](C)O2)[C@H](C)[C@@H](O[C@@H]2O[C@H](C)C[C@H](N(C)C)[C@H]2O)[C@](C)(O)C[C@@H](C)CN(C)[C@H](C)[C@@H](O)[C@]1(C)O [azithromycin] |  |  |
| not |  |  | CCN(CC)CCCC(C)Nc1ccnc2cc(Cl)ccc12 (stereo not drawn) [chloroquine] |  |  |
